# Assay results published in PubChem BioAssay AID1963830 (Molecular Pharmacology Branch, DTP, NCI, 2024).
# Several values for one entry are separate records, joined by “and”; a condition that tells them apart may be missing. Identical values can stand only once.
# Tested on: 922993-354-T-J3-PDC complex spheroid viability
# Experiment: Anticancer human tumor 922993-354-T-J3-PDC patient-derived endometrial carcinoma cell line growth inhibition [POLQ]
# Details: for viability, T/C: stronger effect = lower value
# Experimental: Multicellular complex tumor spheroid response to Polymerase (POL) inhibitors (novobiocin, ART-558, RP6685) in combination with a variety of drugs and investigational agents in selected tumor cell lines
# The POL inhibitors (novobiocin, ART-558, and RP6685) were evaluated both individually and in combination with standard of care and investigational anticancer small molecules within a complex spheroid model of solid tumors. . Complex spheroids include a stromal component modeled by human endothelial cells (HUVEC) and fibroblasts modeled by human mesenchymal stem cells (MSCs). The concentration ranges selected for each drug and investigational agent were based upon clinically achievable concentrations if the clinical Cmax of the agent was known.
# Compounds. The drugs and investigational agents: novobiocin (NSC847541), ART-558 (NSC835418), RP-6685 (NSC848927), peposertib (NSC802822), ceralasertib (NSC780249), elimusertib (NSC800525), camonsertib (NSC841442), AZD-1390 (NSC803789), olaparib (NSC753686), talazoparib (NSC767125), rucaparib (NSC756644), sotorasib (NSC818433), MRTX-1133 (NSC836407), SN-38 (NSC673596), topotecan (NSC609699), epotoside (NSC141540), doxorubicin (NSC123127), gemcitabine (NSC613327), 5-fluorouracil (NSC19893), paclitaxel (NSC125973), vemurafenib (NSC761431), MSA-2 (NSC828583), SN-011 (NSC837082), adavosertib (NSC754352), prexasertib (NSC758257), carboplatin (NSC241240) and oxaliplatin (NSC266046), were obtained from the National Cancer Institute (NCI) Developmental Therapeutics Program Chemical Repository (21). The FDA-approved anticancer drug set is available from the Developmental Therapeutics Program at https://dtp.cancer.gov/organization/dscb/obtaining/. […] The stock solutions were prepared in dimethyl sulfoxide (DMSO, Sigma-Aldrich, St. Louis, MO, cat. D2650), except for the platinum compounds which were prepared in saline (Quality Biological, Gaithersburg, MD, cat. 114-055-101), at 800-fold the tested concentration and stored at -70 degrees C prior to their use. All drugs and investigational agents were tested over a range starting from a high concentration at or near the clinical Cmax and decreasing in half-log increments. If the clinical Cmax for an agent had not been determined, the highest concentration tested was 10 microM, except for SN-38, which was tested at a high concentration of 1 microM.
# Cell Culture. All cells were maintained in an incubator at 37 degrees C and 5% CO2 with 95% humidity. The PDC lines were cultured according to standard operating procedures established by the NCI PDMR (https://pdmr.cancer.gov). Table 3 of the manuscript, lists the cell lines along with the number of the three cell types plated to form the mct-spheroids and media for tumor cell growth. After thawing, all PDC lines, except 997537-175-T-J1-PDC and 415267-285-R-J2-PDC, were cultured in Matrigel-coated flasks prepared with a working solution of 1X Ham's F-12 nutrient mix, without supplementation (Thermo Fisher Scientific, cat. 11765054), 100 U/mL penicillin-streptomycin (Thermo Fisher Scientific, cat. 15140122), and 2.5% Matrigel (Corning Inc., Corning, NY, cat. 354248) for the first three passages. The two PDC lines 997537-175-T-J1-PDC and 415267-285-R-J2-PDC were cultured on uncoated flasks. The 857933-349-R-J2-PDC line was cultured in 6C/Colon 1B media containing advanced DMEM/F-12 (Thermo Fisher Scientific, cat. 12634028), 10 mM HEPES (Thermo Fisher Scientific, cat. 15630080), 1X GlutaMAX supplement (Thermo Fisher Scientific, cat. 35050061), 0.1 mg/mL primocin (InvivoGen, San Diego, CA, cat. ant-pm-2), 10% defined fetal bovine serum, heat inactivated (HyClone Laboratories Inc., Logan, UT, cat. SH30070.03HI), 50% L-WRN conditioned media (ATCC, cat. CRL-3276), 1.25 mM N-Acetyl-L-cysteine (Sigma-Aldrich, cat. A9165), 10 mM nicotinamide (Sigma-Aldrich, cat. N0636), 1X B-27 supplement (Thermo Fisher Scientific, cat. 17504044), 1X N-2 supplement (Thermo Fisher Scientific, cat. […]
# 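Further: spheroids exposed to the agents for one week.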
# 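Wherever viability, T/C is given: 100% = DMSO vehicle control wells.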
smiles,measurement,setting,value
COc1cccc(OCCCN)c1-c1cc(Nc2cnc(C#N)cn2)n[nH]1 + Nc1ccc(C#CCN(C(=O)Cc2ncc(C(F)(F)F)cc2C(F)(F)F)c2ccc(F)cc2)nn1,IC50,"curve of first compound, second compound 0.0316 µM",590 nM
same,IC50,"curve of first compound, second compound 0.1 µM",670 nM
same,IC50,"curve of first compound, second compound 0.316 µM",617 nM
same,IC50,"curve of first compound, second compound 1 µM",609 nM
same,IC50,"curve of first compound, second compound 3.16 µM",277 nM
same,IC50,"curve of first compound, second compound 10 µM",52.3 nM
same,"viability, T/C","second compound 0.0316 µM, first compound 0.00316 µM",102%
same,"viability, T/C","second compound 0.0316 µM, first compound 0.01 µM",100%
same,"viability, T/C","second compound 0.0316 µM, first compound 0.0316 µM",98.2%
same,"viability, T/C","second compound 0.0316 µM, first compound 0.1 µM",97.3%
same,"viability, T/C","second compound 0.0316 µM, first compound 0.316 µM",83.4%
same,"viability, T/C","second compound 0.0316 µM, first compound 1 µM",22.1%
same,"viability, T/C","second compound 0.1 µM, first compound 0.00316 µM",104%
same,"viability, T/C","second compound 0.1 µM, first compound 0.01 µM",99%
same,"viability, T/C","second compound 0.1 µM, first compound 0.0316 µM",95.9%
same,"viability, T/C","second compound 0.1 µM, first compound 0.1 µM",98.5%
same,"viability, T/C","second compound 0.1 µM, first compound 0.316 µM",99.1%
same,"viability, T/C","second compound 0.1 µM, first compound 1 µM",23.8%
same,"viability, T/C","second compound 0.316 µM, first compound 0.00316 µM",102%
same,"viability, T/C","second compound 0.316 µM, first compound 0.01 µM",98.2%
same,"viability, T/C","second compound 0.316 µM, first compound 0.0316 µM",94.7%
same,"viability, T/C","second compound 0.316 µM, first compound 0.1 µM",99.7%
same,"viability, T/C","second compound 0.316 µM, first compound 0.316 µM",92.3%
same,"viability, T/C","second compound 0.316 µM, first compound 1 µM",19.4%
same,"viability, T/C","second compound 1 µM, first compound 0.00316 µM",102%
same,"viability, T/C","second compound 1 µM, first compound 0.01 µM",105%
same,"viability, T/C","second compound 1 µM, first compound 0.0316 µM",101%
same,"viability, T/C","second compound 1 µM, first compound 0.1 µM",96.3%
same,"viability, T/C","second compound 1 µM, first compound 0.316 µM",94%
same,"viability, T/C","second compound 1 µM, first compound 1 µM",16.9%
same,"viability, T/C","second compound 3.16 µM, first compound 0.00316 µM",96.1%
same,"viability, T/C","second compound 3.16 µM, first compound 0.01 µM",98.1%
same,"viability, T/C","second compound 3.16 µM, first compound 0.0316 µM",99.2%
same,"viability, T/C","second compound 3.16 µM, first compound 0.1 µM",94.2%
same,"viability, T/C","second compound 3.16 µM, first compound 0.316 µM",44.3%
same,"viability, T/C","second compound 3.16 µM, first compound 1 µM",14.8%
same,"viability, T/C","second compound 10 µM, first compound 0.00316 µM",95.9%
same,"viability, T/C","second compound 10 µM, first compound 0.01 µM",92.8%
same,"viability, T/C","second compound 10 µM, first compound 0.0316 µM",74.7%
same,"viability, T/C","second compound 10 µM, first compound 0.1 µM",18.3%
same,"viability, T/C","second compound 10 µM, first compound 0.316 µM",10.5%
same,"viability, T/C","second compound 10 µM, first compound 1 µM",10.6%
C=CCn1c(=O)c2cnc(Nc3ccc(N4CCN(C)CC4)cc3)nc2n1-c1cccc(C(C)(C)O)n1,"viability, T/C",compound 0.00316 µM,99% and 101% and 104%
same,"viability, T/C",compound 0.01 µM,102% and 97.2% and 98.6%
same,"viability, T/C",compound 0.0316 µM,88.2% and 102% and 105%
same,"viability, T/C",compound 0.1 µM,98.6% and 105% and 101%
same,"viability, T/C",compound 0.316 µM,106% and 104% and 103%
same,"viability, T/C",compound 1 µM,86.5% and 104% and 96%
same,IC50,curve of compound,> 1000 nM
Cc1cccc(N(C)C(=O)C2C(O)CCN2c2nc(C)cc(C(F)(F)F)c2C#N)c1 (centres undefined),"viability, T/C",compound 0.0316 µM,102% [middle of 13 runs]
same,"viability, T/C",compound 0.1 µM,101% [middle of 13 runs]
same,"viability, T/C",compound 0.316 µM,103% [middle of 13 runs]
same,"viability, T/C",compound 1 µM,103% [middle of 13 runs]
same,"viability, T/C",compound 3.16 µM,103% [middle of 13 runs]
same,"viability, T/C",compound 10 µM,105% [middle of 13 runs]
same,IC50,"compound alone, run of 10/31/2023",> 10000 nM
same,IC50,"compound alone, run of 11/06/2023",> 10000 nM
CC1COCCN1c1cc(C2(O)CC3CCC(C2)O3)c2cnn(-c3ccn[nH]3)c2n1 (centres undefined),"viability, T/C",compound 0.0316 µM,91% and 98.1% and 100%
same,"viability, T/C",compound 0.1 µM,90.2% and 88.6% and 96.7%
same,"viability, T/C",compound 0.316 µM,54.3% and 58.2% and 96.7%
same,"viability, T/C",compound 1 µM,25.7% and 28.6% and 63.1%
same,"viability, T/C",compound 3.16 µM,9.69% and 10.5% and 42.5%
same,"viability, T/C",compound 10 µM,10.9% and 8.97% and 19.9%
same,IC50,curve of compound,399 nM and 441 nM and 2040 nM
